From ChEMBL document CHEMBL4052742, “Optimization of 1H-indazol-3-amine derivatives as potent fibroblast growth factor receptor inhibitors” (Bioorg Med Chem Lett, 2017)

Tests used:
SNU-16 = assay: Antiproliferative activity against human SNU16 cells after 72 hrs by CCK-8 assay; details: SNU-16, 72 h
[1] = target: Fibroblast growth factor receptor 2 (Homo sapiens, UniProt P21802); assay: Inhibition of recombinant FGFR2 (unknown origin) using poly (Glu,Tyr)4:1 as substrate after 60 mins by ELISA based spectrophotometric analysis
KG-1 = assay: Antiproliferative activity against human KG1 cells after 72 hrs by CCK-8 assay; details: KG-1, 72 h
[2] = target: Fibroblast growth factor receptor 1 (Homo sapiens, UniProt P11362); assay: Inhibition of recombinant FGFR1 (unknown origin) using poly (Glu,Tyr)4:1 as substrate after 60 mins by ELISA based spectrophotometric analysis
Sequence of Fibroblast growth factor receptor 1 (P11362 whole entry): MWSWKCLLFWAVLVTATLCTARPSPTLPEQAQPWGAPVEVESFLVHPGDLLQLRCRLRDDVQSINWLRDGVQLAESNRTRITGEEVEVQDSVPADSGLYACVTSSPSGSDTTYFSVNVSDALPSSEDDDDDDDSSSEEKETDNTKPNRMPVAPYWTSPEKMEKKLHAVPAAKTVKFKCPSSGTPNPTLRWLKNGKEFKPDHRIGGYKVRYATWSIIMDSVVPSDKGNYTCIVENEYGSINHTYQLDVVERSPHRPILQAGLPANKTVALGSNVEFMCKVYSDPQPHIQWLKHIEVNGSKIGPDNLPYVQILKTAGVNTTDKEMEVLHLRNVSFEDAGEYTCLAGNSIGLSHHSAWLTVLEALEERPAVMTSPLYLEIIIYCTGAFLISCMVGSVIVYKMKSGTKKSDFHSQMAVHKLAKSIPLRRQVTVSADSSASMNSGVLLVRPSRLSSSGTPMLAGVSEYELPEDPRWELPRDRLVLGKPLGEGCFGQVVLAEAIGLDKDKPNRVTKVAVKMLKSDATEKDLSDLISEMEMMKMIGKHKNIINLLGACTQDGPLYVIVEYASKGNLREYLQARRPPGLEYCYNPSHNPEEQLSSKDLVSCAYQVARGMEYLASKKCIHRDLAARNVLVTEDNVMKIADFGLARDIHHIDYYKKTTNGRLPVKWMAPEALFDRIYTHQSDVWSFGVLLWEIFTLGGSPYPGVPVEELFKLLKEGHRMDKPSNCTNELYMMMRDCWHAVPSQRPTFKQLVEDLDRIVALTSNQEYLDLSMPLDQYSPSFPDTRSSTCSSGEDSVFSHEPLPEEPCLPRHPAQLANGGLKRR

Sequence of Fibroblast growth factor receptor 2 (P21802 whole entry): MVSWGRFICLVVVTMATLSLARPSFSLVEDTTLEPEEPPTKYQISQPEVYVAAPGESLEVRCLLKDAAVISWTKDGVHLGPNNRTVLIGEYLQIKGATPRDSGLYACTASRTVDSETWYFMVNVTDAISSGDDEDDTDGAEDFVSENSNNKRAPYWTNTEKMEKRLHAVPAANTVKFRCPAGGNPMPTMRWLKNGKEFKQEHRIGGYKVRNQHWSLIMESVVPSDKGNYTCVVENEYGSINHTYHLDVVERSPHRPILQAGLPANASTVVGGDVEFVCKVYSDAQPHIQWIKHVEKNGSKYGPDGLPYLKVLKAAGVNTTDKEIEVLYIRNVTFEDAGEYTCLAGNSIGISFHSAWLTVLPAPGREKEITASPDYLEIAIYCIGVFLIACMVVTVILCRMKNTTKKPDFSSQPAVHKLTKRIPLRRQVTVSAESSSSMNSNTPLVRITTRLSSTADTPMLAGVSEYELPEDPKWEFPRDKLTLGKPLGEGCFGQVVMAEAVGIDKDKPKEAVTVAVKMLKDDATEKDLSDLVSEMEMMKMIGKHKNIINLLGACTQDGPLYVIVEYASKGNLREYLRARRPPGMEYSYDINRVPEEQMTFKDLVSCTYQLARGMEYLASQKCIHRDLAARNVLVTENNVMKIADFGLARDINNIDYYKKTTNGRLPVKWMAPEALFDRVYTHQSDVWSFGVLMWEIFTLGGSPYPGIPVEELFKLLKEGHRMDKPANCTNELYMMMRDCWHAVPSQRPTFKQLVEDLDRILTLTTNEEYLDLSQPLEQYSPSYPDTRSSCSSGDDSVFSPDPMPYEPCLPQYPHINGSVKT

| IC50 (SNU-16) [nM] | IC50 [1] [nM] | IC50 [2] [nM] | SMILES | IC50 (KG-1) [nM] |
| --- | --- | --- | --- | --- |
| > 1000 | > 1000 | > 1000 | CCN1CCN(c2ccc(C(=O)Nc3n[nH]c4cc(-c5cccc(OC)c5F)ccc34)cc2C(F)(F)F)CC1 | > 1000 |
| 591 |  |  | CCN1CCN(c2ccc(C(=O)Nc3n[nH]c4cc(-c5cccc(OC)c5F)ccc34)cc2)CC1 | 284 |
| > 1000 |  |  | CCN1CCN(c2ccc(C(=O)Nc3n[nH]c4cc(-c5cccc(OC)c5F)c(F)cc34)cc2)CC1 | 684 |
| > 1000 |  |  | COc1cccc(-c2ccc3c(NC(=O)c4ccc(N5CCN(C)CC5)c(F)c4)n[nH]c3c2)c1F | > 1000 |
| > 1000 |  |  | CCN1CCN(c2ccc(C(=O)Nc3n[nH]c4cc(-c5cccc(OC)c5F)cc(F)c34)cc2)CC1 | > 1000 |

Further lines, the compound ahead of its results:

| SMILES | IC50 (SNU-16) [nM] | IC50 [1] [nM] | IC50 [2] [nM] | IC50 (KG-1) [nM] |
| --- | --- | --- | --- | --- |
| CCN1CCN(c2ccc(C(=O)Nc3n[nH]c4cc(-c5c(F)cc(F)c(OC)c5F)ccc34)cc2)CC1 | > 1000 |  |  | > 1000 |
| COCCN1CCN(c2ccc(C(=O)Nc3n[nH]c4cc(-c5c(F)ccc(OC)c5F)ccc34)cc2)CC1 | 431 |  |  | 47.3 |
| COc1ccc(F)c(-c2ccc3c(NC(=O)c4ccc(N5C[C@@H](C)N[C@@H](C)C5)cc4)n[nH]c3c2)c1F | 582 |  |  | 348 |
| COc1ccc(F)c(-c2ccc3c(NC(=O)c4ccc(N5CCCN(C)CC5)cc4)n[nH]c3c2)c1F | 102 |  |  | 51.5 |
| COc1ccc(F)c(-c2ccc3c(NC(=O)c4ccc(N(C)CCN(C)C)cc4)n[nH]c3c2)c1F | 366 |  |  | 333 |
| COc1cccc(-c2ccc3c(NC(=O)c4ccc(N5CCN(C)CC5)cc4F)n[nH]c3c2)c1F | > 1000 | > 1000 | > 1000 | > 1000 |
| COc1ccc(F)c(-c2ccc3c(NC(=O)c4ccc(N5CCN(C)CC5)cc4)n[nH]c3c2)c1F | 35.6 | < 4.1 |  | 41.5 |
| COCCN1CCN(c2ccc(C(=O)Nc3n[nH]c4cc(-c5c(F)cc(F)c(OC)c5F)ccc34)cc2)CC1 | > 1000 |  |  | > 1000 |
| COc1ccc(F)c(-c2ccc3c(NC(=O)c4ccc(N5CCN(C(C)=O)CC5)cc4)n[nH]c3c2)c1F | 322 | 2.9 |  | 595 |
| CCN1CCN(c2ccc(C(=O)Nc3n[nH]c4cc(-c5c(F)ccc(OC)c5F)ccc34)cc2)CC1 | 77.4 |  | < 4.1 | 25.3 |
| COc1cc(CCc2cc(NC(=O)c3ccc(N4C[C@@H](C)N[C@@H](C)C4)cc3)n[nH]2)cc(OC)c1 [FEXAGRATINIB] | 3.4 |  |  | 3.3 |
